Measured values from US20240197869A1, “HYPERACTIVATORS OF MAMMALIAN DENDRITIC CELLS” (Corner Therapeutics, Inc., priority 2021, published 2024).
Entries after “also recorded” stand apart in the source; their conditions may differ. Where two headings read alike, the source gives them in different places.

Columns and labels:
[1] = PAMP screen: viability of human moDCs with PRR agonist and 22:0 Lyso PC; type: cell-based; details: human, human monocyte-derived dendritic cells (moDCs), No PAMP, 20 μM 22:0 Lyso PC alone, human moDCs, read-out: Relative Viability (%) ± SD
Method: Pathogen-Associated Molecular Pattern (PAMP) Screen. Innate immune signaling pathway agonists were purchased from Invivogen. Lyophilized stocks were reconstituted and stored according to manufacturer's instructions and at recommended concentrations. […] Innate immune signaling agonists were diluted in R10 media to the manufacturer's recommended working concentration and then added onto cells. 22:0 Lyso PC was then reconstituted from a lyophilized stock in R10 and then further diluted. The lipid was added onto cells at a final concentration of 20 μM. Cells were incubated for 2 days, then cultures were collected for endpoint analyses.
(§1) Quantification of Cell Viability.

[2] = test system: canine peripheral blood mononuclear cells (PBMCs); test: IL-1β secretion by canine PBMCs (ELISA); type: cell-based; details: lipid 82.5 μM combined with R848 1 μg/mL, 2 days
Method: (§2) Isolation of PBMCs from Whole Blood. PBMCs were isolated from whole blood using density gradient centrifugation with Ficoll-Paque PLUS (Cytivia). Whole blood was diluted 1:1 with PBS, layered on top of Ficoll-Paque PLUS and centrifuged at 1000×g for 30 minutes at room temperature. PBMCs were collected, washed twice in PBS, and incubated with Ack lysis buffer (Lonza) to remove any remaining red blood cells.
(§3) Cell Culture and Stimulation. […] Cells were plated at 1×10^5 (canine cells) or 1×10^6 (human cells) per well in 96-well flat bottom tissue culture plates. Lyophilized Vaccigrade R848 (Invivogen) was reconstituted and diluted according to manufacturer's recommendations and added to cells at a final concentration of 1 μg/mL.
Quantification of Cytokine Secretion. IL-1β secretion from human PBMCs was assessed using one of the following kits: ELISA MAX Deluxe Set Human IL-1β kit (Biolegend), Invitrogen Human IL-1β kit, or the Lumit™ Human IL-1β Immunoassay (Promega). IFNγ secretion from human PBMCs was assessed using the ELISA MAX Deluxe Set Human IFNγ (Biolegend) and TNFα secretion from human PBMCs was assessed using the Human TNFα Uncoated ELISA kit (Invitrogen). […] IL-1β secretion from canine PBMCs was assessed using the Canine IL-1β/IL-1F2 DuoSet ELISA (R&D) according to manufacturer's instructions with the following modifications: i) total sample+buffer volume for incubation was reduced from 100 μL to 50 μL; ii) sample incubation was completed overnight at 4° C. on an orbital shaker. For all ELISAs, absorbance was measured at 450 nm, with a 570 nm correction, using a Spectramax M5e plate reader (Molecular Devices). For Lumit™ assays, luminescence was measured on all wavelengths using a Spectramax M5e plate reader (Molecular Devices) with an integration time of 500 ms. […]

[3] = test system: canine peripheral blood mononuclear cells (PBMCs); test: Viability of canine PBMCs (CellTiter-Glo); type: cell-based; details: lipid combined with R848, 2 days, relative to R848 alone
Method: as §2, §3, §1

[4] = test system: human memory CD4+ T cells; test: Human moDC coculture with memory CD4 T cells: cytokine secretion; type: cell-based; details: moDC treated with R848 + lipid; limiting anti-CD3; 2 days after T cell addition
From the text: Human moDC coculture with memory CD4 T cells. Human monocytes were isolated from leukopheresis products using Miltenyi StraightFrom LeukoPak CD14 microbeads as directed by manufacturer. Custom PBMC isolation microbead kits from Miltenyi were used to separate PBMCs from red blood cells and granulocytes from the same blood products. After PBMC purification, Miltenyi human memory CD4+ T cell isolation kits were used to negatively select the CD45RO+ fraction. Cells were cryogenically stored until ready for use in experiments.
Human monocytes were differentiated into dendritic cells as previously described using recombinant human GM-CSF and IL-4 for 6 days. moDCs were plated in R10 media at 5E4 cells/well into 96-well U-bottom microplates for hyperactivations. […] T cell stimulating anti-CD3 antibody was added into the culture (with or without blocking anti-IL-1beta antibody) prior to T cell addition. Autologous frozen memory CD4 T cells were thawed, resuspended in R10 media and added at 2.5×10^5 cells/well (ratio 1:5, DC:T cell). After two days incubation, cell culture supernatant was collected and used for measuring cytokine secretion. Commercially available kits such as Biolegend LegendPlex kits were used as directed by manufacturer's protocol to quantify cytokines of interest.
Four donors were tested with each experimental condition tested in triplicate. […]

human moDC = test: IL-1β secretion by human moDC with surfactant formulations of 22:0 Lyso PC; type: cell-based
Method: Formulation of 22:0 Lyso PC with poloxamers. […] 22:0 Lyso PC was resuspended in the surfactant solution and agitated at 4° C. for an hour. Solutions were then brought to room temperature to form micelles. Using 10× concentrated PBS, salts were added to the solution to stabilize molecular interactions and provide physiologically relevant osmolarity. Lipid solutions were either left unfiltered or filtered through a pore size of 0.45 um to remove insoluble lipid flakes. Lipids were further diluted and added onto human moDC cell cultures along with 1 ug/mL R848. Targeted lipid concentrations were based on the scenario where the lipid is fully bio-available prior to filtration. However, filtration of insoluble lipid reduces the bio-available supply of lipid. Thus, IL-1beta as a measure of hyperactivity can be used as an indicator of 22:0 Lyso PC incorporation into micelles and thus into solution. One day after hyperactivation, cell culture supernatants are collected to measure cytokine secretion, and cells are used to measure viability via Cell Titer-Glo.
Salts are added to the solution to stabilize the molecular interactions and bring the solution to a physiologically relevant osmolarity. The solutions are then either left unfiltered or filtered through a pore size of 0.45 um to remove insoluble lipid flakes or particle aggregates. Lipids are then added to human moDC cultures with 1 ug/mL R848. One day after hyperactivation, cell culture supernatants were collected to measure cytokine secretion, and cells were used to measure cell viability.
Data from these studies in poloxamer formulation are shown from one human moDC donor sample. Individual data points represent the mean of triplicates.

[5] = Particle size by Dynamic Light Scattering (DLS); type: physicochemical; details: particles of 22:0 Lyso PC and KP407 by solvent evaporation, after 0.45 um filtration
From the text: Particle size was quantified by Dynamic Light Scattering (DLS).

[6] = test system: human monocyte-derived dendritic cells (moDCs); test: DAMP screen: viability of human moDCs (CellTiter-Glo)
Method: Danger-Associated Molecular Pattern (DAMP) Screen. After 6 days of differentiation into moDC, cells were collected and counted. Cells were plated at 100,000 cells/well in R10 media in 96-well flat bottom tissue culture-treated plates. LPS, serotype O55:B5 (Enzo Life Sciences) was added to a final concentration of 1 μg/mL in each well. […] Cells were incubated at 37° C., 5% CO2 for two days. Cell cultures were then used for endpoint analyses.
Endpoint Analyses. After culturing moDCs with PAMPs and DAMPs for two days, supernatant and cell samples were collected for analysis.
Quantification of Cell Viability. Cell viability was assessed by quantifying the presence of ATP as an indicator of metabolically active cells using the CellTiter-Glo Luminescent Cell Viability Assay (Promega). Metabolic activity was assessed following manufacturer's instructions. The CellTiter-Glo reagent was mixed with the cell pellets and remaining supernatant, and transferred to a white, opaque 96-well plate. Luminescence was measured on all wavelengths on a Spectramax iD3 plate reader (Molecular Devices) using an integration time of 500 ms. Percent viability was calculated relative to the control condition of moDCs treated with LPS.

CCCCCCCCCCCCCCCCCCCCCC(=O)OC[C@@H](O)COP(=O)([O-])OCC[N+](C)(C)C [22:0 LYSO PC, 1-behenoyl-2-hydroxy-sn-glycero-3-phosphocholine]
viability at 2 days, 20 μM ([1]; Table 1-7, 10 donors): 120%
viability at 2 days, 20 μM ([1]; Table 1-8): 120%
IL-1β secretion (in words) [2]: comparable or higher levels of IL-1β compared to every other stimuli tested; also recorded: hyperactivated to a greater extent
relative cell viability (in words) [3]: remain viable
relative cell viability (in words) ([3]; listed as 22:0 LYSO): did not significantly reduce relative cell viability
IFN-gamma (Th1 response) from cocultured memory CD4 T cells (in words) [4]: significantly stronger Th1 response
IL-1beta secretion, effect of 0.45 um filtration (in words) (human moDC; filtered vs unfiltered lipid + R848): significantly decreased the IL-1beta secreted by moDC
IL-1beta secretion (in words) (human moDC; methanol or ethanol solvent evaporation with KP407, filtered, target 82.5 uM + R848): further increased
IL-1beta secretion (in words) (human moDC; mixed with KP407 (5% in PBS), 0.45 um filtered, target 82.5 uM + R848): increased IL-1beta secretion
IL-1beta secretion (in words) (human moDC; not incorporated into KP407 micelles, 0.45 um filtered, target 82.5 uM + R848): minimal amounts of IL-1beta
IL-1beta secretion (in words) (human moDC; surfactant formulations left unfiltered + R848): high IL-1beta secretion
particle diameter [5]: approximately 1500 nm
Relative Viability (%) ± SD ([6]; 41.3 μM lipid + LPS 1 μg/mL, 2 days, relative to LPS-treated moDCs, Table 1-2): 47.6%
Relative Viability (%) ± SD ([6]; 82.5 μM lipid + LPS 1 μg/mL, 2 days, relative to LPS-treated moDCs, Table 1-1): 14.6%
Relative Viability (%) ± SD ([6]; 82.5 μM lipid + LPS, selected lipids, Table 1-3 (repeats Table 1-1)): 14.6%
